# Calls of active or inactive are those of the source.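 How the source made its calls: active means mean IC50 below 20 µM in each of the two panels, so potent in both; inactive means the rest.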
# Target: Neuropilin-1 (Homo sapiens) (UniProt O14786)
# Test: blockers of CendR peptide binding to NRP-1 – biochemical, FP and AlphaScreen panel, dose response (AID 651650)
# Details: NRP-1 b1b2 / RPARPAR peptide binding, FP or AlphaScreen; AlphaScreen, mean of runs
# Sequence of Neuropilin-1 (Homo sapiens) (O14786 whole entry, looked up): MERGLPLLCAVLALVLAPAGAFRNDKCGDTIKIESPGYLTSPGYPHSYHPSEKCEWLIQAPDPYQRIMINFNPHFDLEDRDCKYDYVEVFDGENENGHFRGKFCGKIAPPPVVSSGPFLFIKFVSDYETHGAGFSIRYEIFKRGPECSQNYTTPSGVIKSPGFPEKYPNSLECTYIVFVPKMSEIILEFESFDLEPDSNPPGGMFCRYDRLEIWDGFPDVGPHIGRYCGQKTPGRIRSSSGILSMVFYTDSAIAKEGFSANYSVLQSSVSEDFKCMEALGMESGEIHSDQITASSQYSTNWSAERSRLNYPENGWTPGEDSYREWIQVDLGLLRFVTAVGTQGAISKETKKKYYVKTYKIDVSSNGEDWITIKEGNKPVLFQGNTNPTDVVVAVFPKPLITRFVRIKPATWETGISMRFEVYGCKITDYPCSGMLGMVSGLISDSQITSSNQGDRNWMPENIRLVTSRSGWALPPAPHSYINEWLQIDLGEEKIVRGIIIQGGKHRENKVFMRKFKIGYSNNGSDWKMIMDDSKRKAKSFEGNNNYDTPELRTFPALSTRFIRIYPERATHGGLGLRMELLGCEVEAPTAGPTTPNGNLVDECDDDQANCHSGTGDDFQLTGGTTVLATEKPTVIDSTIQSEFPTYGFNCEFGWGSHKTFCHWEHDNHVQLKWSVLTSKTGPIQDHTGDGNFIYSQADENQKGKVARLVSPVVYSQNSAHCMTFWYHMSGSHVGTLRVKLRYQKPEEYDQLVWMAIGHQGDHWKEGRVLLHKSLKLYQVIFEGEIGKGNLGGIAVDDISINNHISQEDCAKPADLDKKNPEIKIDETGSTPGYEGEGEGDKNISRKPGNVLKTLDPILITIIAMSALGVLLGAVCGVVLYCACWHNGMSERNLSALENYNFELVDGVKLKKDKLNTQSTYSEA
row,SMILES,IC50
1,COc1ccc(S(=O)(=O)N2CCCCC2)cc1NC(=O)c1c(F)cccc1Cl,> 100 µM (inactive)
2,Cn1c(=O)c2c(nc(OCc3cccnc3)n2Cc2ccccc2)n(C)c1=O,inactive
3,Cc1ccc(/C=N/Nc2nc3ccccc3[nH]2)s1,> 100 µM (inactive)
4,NC(N)=NCCC[C@H](NC(=O)OCc1ccccc1)C(=O)O,> 100 µM (inactive)
5,CN(C)CCOC(c1ccc(Cl)cc1)c1ccccn1 (configuration not stated),> 100 µM (inactive)
6,CN(Cc1ccccc1)C(=O)c1nc[nH]c1C(=O)N1CCN(C(=O)OC(C)(C)C)CC1,> 100 µM (inactive)
7,Cc1cccc(N(CC(=O)NC2CCCC2)C(=O)CS(=O)CC(=O)Nc2ccc3c(c2)OCO3)c1C (configuration not stated),> 100 µM (inactive)
8,Cn1c(=O)c2c(ncn2CC(COCc2ccccc2)OCc2ccccc2)n(C)c1=O (configuration not stated),> 100 µM (inactive)
9,Cc1ccc(C(=O)N/C(=C\c2sccc2C)C(=O)NCc2ccco2)cc1,inactive
10,COc1cc(Cn2nnc3ccccc32)cc(Br)c1O,> 100 µM (inactive)
11,O=C1CSC(c2cn(-c3ccccc3)nc2-c2cccs2)N1CC1CCCO1 (configuration not stated),inactive
12,O=C(c1ccccn1)N1CCN(S(=O)(=O)c2ccccc2)CC1,inactive
13,COc1ccncc1-c1csc(C(O)c2ccccc2)n1 (configuration not stated),> 100 µM (inactive)
14,Cc1cccc(C)c1Nc1nnc(SCC(=O)Nc2cc(S(=O)(=O)N3CCCCC3)ccc2Cl)s1,> 100 µM (inactive)
15,CCC1CCCCN1C(=S)Nc1ccc(OC(F)F)cc1 (configuration not stated),inactive
16,O=C(CSc1nnc(CNC(=O)C23CC4CC(CC(C4)C2)C3)n1-c1ccccc1)Nc1ccc(F)cc1,> 100 µM (inactive)
17,CC1CCN(C(=O)CSc2nncn2C)CC1,> 100 µM (inactive)
18,Cc1ccc(NC=C(S(=O)(=O)c2ccccc2)S(=O)(=O)c2ccccc2)cc1,> 100 µM (inactive)
19,Cc1ccc(C(=O)Nc2ccccc2-c2ccccc2)cc1S(=O)(=O)Nc1ccccc1,> 100 µM (inactive)
20,CC(=O)Nc1ccc(NC(=O)C2CC(=O)N=C(N)S2)cc1 (configuration not stated),> 100 µM (inactive)
21,O=C(NCc1ccccc1)c1ccc(N2CCC3(CC2)CC(c2ccc(Cl)cc2)=NO3)c([N+](=O)[O-])c1,inactive
22,Cc1occc1C(=O)N1N=C(C2CC2)CC1(O)C(F)(F)F (configuration not stated),> 100 µM (inactive)
23,CCOc1ccc(N2C(=O)CC(N3CCN(c4ccc(Cl)cc4)CC3)C2=O)cc1 (configuration not stated),inactive

row,SMILES,IC50
1,C=C1CCN(C(C(=O)OC)C(C)C)S(=O)(=O)c2ccc(F)cc21 (configuration not stated),> 100 µM (inactive)
2,CC(=O)Nc1ccc(NC(=O)C2CC(=O)N(c3ccc(Cl)cc3)C2)cc1 (configuration not stated),17.9 µM
3,CC(C)(C)OC(=O)N1CCC(NC(=O)c2nc[nH]c2C(=O)N2CCc3ccccc3C2)CC1,> 100 µM (inactive)
4,O=C(NCCOC(=O)c1ccccc1)c1ccccc1,inactive
5,COc1ccc(/C=N/NC(=O)c2ccccc2Cl)cc1CSc1nc2ccccc2s1,> 100 µM (inactive)
6,NC(=O)C1=C[C@H](c2ccc(Br)cc2)C[C@H](OCc2ccc(CO)cc2)O1,> 100 µM (inactive)
7,FC(F)(F)C1CC(c2cccs2)Nc2ncnn21 (configuration not stated),> 100 µM (inactive)
8,CCOc1ccccc1N1CCN(C(=O)c2ccncc2)CC1,> 100 µM (inactive)
9,O=C(Cn1ccc(NC(=O)OCc2ccccc2)nc1=O)NCCCn1ccnc1,> 100 µM (inactive)
10,Cc1cc(S(=O)(=O)NC2CCCCC2)ccc1OCC(=O)N1CCOCC1,15.2 µM
11,Cc1cc(NC(=O)CCC(=O)NNC(=O)c2ccc(C(C)(C)C)cc2)no1,8.63 µM
12,CC(C)(C)C(=O)c1cnc(Nc2ccccc2)s1,> 100 µM (inactive)
13,CN1C(=O)c2oc3ccccc3c(=O)c2C1c1ccccn1 (configuration not stated),inactive
14,O=C(O)CSc1nnc(-c2ccc(Cl)cc2Cl)n1-c1ccc(Cl)cc1,inactive
15,COc1ccc(C(C(=O)NC(C)(C)C)N(C(=O)CCC(=O)Nc2cc(C)on2)c2c(C)cccc2C)cc1 (configuration not stated),> 100 µM (inactive)
16,CCC(=NCCc1ccccc1)c1c(O)n(C2CCCCC2)c(=O)[nH]c1=O,> 100 µM (inactive)
17,CCN1C(=O)C(=O)c2cc(C)ccc21,> 100 µM (inactive)
18,CC1CCC(NC(=O)CSc2nncn2C)CC1 (configuration not stated),> 100 µM (inactive)
19,Cc1ccc(NC(=S)N2CCN(Cc3ccccc3)CC2)cc1,> 100 µM (inactive)
20,CCCCCc1c(-c2cccc(Cl)c2)ncn1CCc1ccccc1OC,> 100 µM (inactive)
21,Cc1onc(-c2ccccc2)c1C(=O)Nc1c(C)n(C)n(-c2ccccc2)c1=O,> 100 µM (inactive)
22,O=C1CCN(Cc2ccccc2)S(=O)(=O)c2ccccc21,> 100 µM (inactive)

# Same assay, conditions: NRP-1 b1b2 / RPARPAR peptide binding, FP or AlphaScreen; AlphaScreen, run 1; individual panel run IC50
row,SMILES,IC50 [µM]
1,COc1ccc(S(=O)(=O)N2CCCCC2)cc1NC(=O)c1c(F)cccc1Cl,> 100
2,Cn1c(=O)c2c(nc(OCc3cccnc3)n2Cc2ccccc2)n(C)c1=O,40.7
3,Cc1ccc(/C=N/Nc2nc3ccccc3[nH]2)s1,> 100
4,NC(N)=NCCC[C@H](NC(=O)OCc1ccccc1)C(=O)O,> 100
5,CN(C)CCOC(c1ccc(Cl)cc1)c1ccccn1 (configuration not stated),> 100
6,CN(Cc1ccccc1)C(=O)c1nc[nH]c1C(=O)N1CCN(C(=O)OC(C)(C)C)CC1,> 100
7,Cc1cccc(N(CC(=O)NC2CCCC2)C(=O)CS(=O)CC(=O)Nc2ccc3c(c2)OCO3)c1C (configuration not stated),> 100
8,Cn1c(=O)c2c(ncn2CC(COCc2ccccc2)OCc2ccccc2)n(C)c1=O (configuration not stated),> 100
9,Cc1ccc(C(=O)N/C(=C\c2sccc2C)C(=O)NCc2ccco2)cc1,92
10,COc1cc(Cn2nnc3ccccc32)cc(Br)c1O,> 100
11,O=C1CSC(c2cn(-c3ccccc3)nc2-c2cccs2)N1CC1CCCO1 (configuration not stated),44.4
12,O=C(c1ccccn1)N1CCN(S(=O)(=O)c2ccccc2)CC1,27.8
13,COc1ccncc1-c1csc(C(O)c2ccccc2)n1 (configuration not stated),> 100
14,Cc1cccc(C)c1Nc1nnc(SCC(=O)Nc2cc(S(=O)(=O)N3CCCCC3)ccc2Cl)s1,> 100
15,CCC1CCCCN1C(=S)Nc1ccc(OC(F)F)cc1 (configuration not stated),32.8
16,O=C(CSc1nnc(CNC(=O)C23CC4CC(CC(C4)C2)C3)n1-c1ccccc1)Nc1ccc(F)cc1,> 100
17,CC1CCN(C(=O)CSc2nncn2C)CC1,> 100
18,Cc1ccc(NC=C(S(=O)(=O)c2ccccc2)S(=O)(=O)c2ccccc2)cc1,> 100
19,Cc1ccc(C(=O)Nc2ccccc2-c2ccccc2)cc1S(=O)(=O)Nc1ccccc1,> 100
20,CC(=O)Nc1ccc(NC(=O)C2CC(=O)N=C(N)S2)cc1 (configuration not stated),> 100
21,O=C(NCc1ccccc1)c1ccc(N2CCC3(CC2)CC(c2ccc(Cl)cc2)=NO3)c([N+](=O)[O-])c1,22
22,Cc1occc1C(=O)N1N=C(C2CC2)CC1(O)C(F)(F)F (configuration not stated),> 100
23,CCOc1ccc(N2C(=O)CC(N3CCN(c4ccc(Cl)cc4)CC3)C2=O)cc1 (configuration not stated),22.2

row,SMILES,IC50 [µM]
1,C=C1CCN(C(C(=O)OC)C(C)C)S(=O)(=O)c2ccc(F)cc21 (configuration not stated),> 100
2,CC(=O)Nc1ccc(NC(=O)C2CC(=O)N(c3ccc(Cl)cc3)C2)cc1 (configuration not stated),17.9
3,CC(C)(C)OC(=O)N1CCC(NC(=O)c2nc[nH]c2C(=O)N2CCc3ccccc3C2)CC1,> 100
4,O=C(NCCOC(=O)c1ccccc1)c1ccccc1,45.3
5,COc1ccc(/C=N/NC(=O)c2ccccc2Cl)cc1CSc1nc2ccccc2s1,> 100
6,NC(=O)C1=C[C@H](c2ccc(Br)cc2)C[C@H](OCc2ccc(CO)cc2)O1,> 100
7,FC(F)(F)C1CC(c2cccs2)Nc2ncnn21 (configuration not stated),> 100
8,CCOc1ccccc1N1CCN(C(=O)c2ccncc2)CC1,> 100
9,O=C(Cn1ccc(NC(=O)OCc2ccccc2)nc1=O)NCCCn1ccnc1,> 100
10,Cc1cc(S(=O)(=O)NC2CCCCC2)ccc1OCC(=O)N1CCOCC1,15.2
11,Cc1cc(NC(=O)CCC(=O)NNC(=O)c2ccc(C(C)(C)C)cc2)no1,8.63
12,CC(C)(C)C(=O)c1cnc(Nc2ccccc2)s1,> 100
13,CN1C(=O)c2oc3ccccc3c(=O)c2C1c1ccccn1 (configuration not stated),34.9
14,O=C(O)CSc1nnc(-c2ccc(Cl)cc2Cl)n1-c1ccc(Cl)cc1,39.9
15,COc1ccc(C(C(=O)NC(C)(C)C)N(C(=O)CCC(=O)Nc2cc(C)on2)c2c(C)cccc2C)cc1 (configuration not stated),> 100
16,CCC(=NCCc1ccccc1)c1c(O)n(C2CCCCC2)c(=O)[nH]c1=O,> 100
17,CCN1C(=O)C(=O)c2cc(C)ccc21,> 100
18,CC1CCC(NC(=O)CSc2nncn2C)CC1 (configuration not stated),> 100
19,Cc1ccc(NC(=S)N2CCN(Cc3ccccc3)CC2)cc1,> 100
20,CCCCCc1c(-c2cccc(Cl)c2)ncn1CCc1ccccc1OC,> 100
21,Cc1onc(-c2ccccc2)c1C(=O)Nc1c(C)n(C)n(-c2ccccc2)c1=O,> 100
22,O=C1CCN(Cc2ccccc2)S(=O)(=O)c2ccccc21,> 100

# Same assay, conditions: NRP-1 b1b2 / RPARPAR peptide binding, FP or AlphaScreen; FP, mean of runs
row,SMILES,IC50
1,COc1ccc(S(=O)(=O)N2CCCCC2)cc1NC(=O)c1c(F)cccc1Cl,> 95 µM (inactive)
2,Cn1c(=O)c2c(nc(OCc3cccnc3)n2Cc2ccccc2)n(C)c1=O,> 95 µM (inactive)
3,Cc1ccc(/C=N/Nc2nc3ccccc3[nH]2)s1,> 95 µM (inactive)
4,NC(N)=NCCC[C@H](NC(=O)OCc1ccccc1)C(=O)O,> 95 µM (inactive)
5,CN(C)CCOC(c1ccc(Cl)cc1)c1ccccn1 (configuration not stated),> 95 µM (inactive)
6,CN(Cc1ccccc1)C(=O)c1nc[nH]c1C(=O)N1CCN(C(=O)OC(C)(C)C)CC1,> 95 µM (inactive)
7,Cc1cccc(N(CC(=O)NC2CCCC2)C(=O)CS(=O)CC(=O)Nc2ccc3c(c2)OCO3)c1C (configuration not stated),> 95 µM (inactive)
8,Cn1c(=O)c2c(ncn2CC(COCc2ccccc2)OCc2ccccc2)n(C)c1=O (configuration not stated),> 95 µM (inactive)
9,Cc1ccc(C(=O)N/C(=C\c2sccc2C)C(=O)NCc2ccco2)cc1,> 95 µM (inactive)
10,COc1cc(Cn2nnc3ccccc32)cc(Br)c1O,> 95 µM (inactive)
11,O=C1CSC(c2cn(-c3ccccc3)nc2-c2cccs2)N1CC1CCCO1 (configuration not stated),> 95 µM (inactive)
12,O=C(c1ccccn1)N1CCN(S(=O)(=O)c2ccccc2)CC1,> 95 µM (inactive)
13,COc1ccncc1-c1csc(C(O)c2ccccc2)n1 (configuration not stated),> 95 µM (inactive)
14,Cc1cccc(C)c1Nc1nnc(SCC(=O)Nc2cc(S(=O)(=O)N3CCCCC3)ccc2Cl)s1,> 95 µM (inactive)
15,CCC1CCCCN1C(=S)Nc1ccc(OC(F)F)cc1 (configuration not stated),> 95 µM (inactive)
16,O=C(CSc1nnc(CNC(=O)C23CC4CC(CC(C4)C2)C3)n1-c1ccccc1)Nc1ccc(F)cc1,> 95 µM (inactive)
17,CC1CCN(C(=O)CSc2nncn2C)CC1,> 95 µM (inactive)
18,Cc1ccc(NC=C(S(=O)(=O)c2ccccc2)S(=O)(=O)c2ccccc2)cc1,> 95 µM (inactive)
19,Cc1ccc(C(=O)Nc2ccccc2-c2ccccc2)cc1S(=O)(=O)Nc1ccccc1,> 95 µM (inactive)
20,CC(=O)Nc1ccc(NC(=O)C2CC(=O)N=C(N)S2)cc1 (configuration not stated),> 95 µM (inactive)
21,O=C(NCc1ccccc1)c1ccc(N2CCC3(CC2)CC(c2ccc(Cl)cc2)=NO3)c([N+](=O)[O-])c1,> 95 µM (inactive)
22,Cc1occc1C(=O)N1N=C(C2CC2)CC1(O)C(F)(F)F (configuration not stated),> 95 µM (inactive)
